Experimental data from publication PMC5460133 (Scientific Reports, 2017).

Experiments:
Sb-PDE [1] = test system: T1, Sb-PDE; format: biochemical, Sphingobium sp. TCM1
T1 construct: native enzyme purified from Sphingobium sp; TCM1; signal peptide removed; mature 413 residues, N-terminus EFVTQSDQRPP (residues 29-39 of 441); homodimer, 116 kDa; zinc-containing; PHP superfamily

Sb-PDE [2] = test system: T1, Sb-PDE; format: biochemical, Sphingobium sp. TCM1; remark: listed apart in the source

SMILES | Km (Sb-PDE [1]) | K i (Sb-PDE [2])
O=[N+]([O-])c1ccc(OP(=O)(O)O)cc1 [pNPP] | 1.5 ± 0.2 mM | –
O=[N+]([O-])c1ccc(OP(=O)(O)Oc2ccc([N+](=O)[O-])cc2)cc1 [BpNPP] | 6.1 ± 1.2 mM | 12.5 ± 3.1 mM
